Source: patent US6638524B2, “Cosmetics, foods and beverages supplemented with purified strictinin” (National Agricultural Research Organization, priority 2000, dated 2003)

Legend:
[1] = system: mast cells in abdominal cavity of rat; details: literature report; cited from earlier work
[2] = system: CεGT inducible expression by IL-4 in human B cell line DND 39; assay: expression of IgE heavy chain germline transcript (CεGT) induced by IL-4 in human B cell line DND 39 (IgE class switch suppression); assay type: cell-based; details: strictinin 1, 10 and 25 μM added at the same time with IL-4, DND 39, FIG. 3
Experimental: (§1) Each of Fr. 1 to 5 in Experimental Example 1 was evaluated for its antiallergic action in vitro by a method for the expression of a transcript of an IgE heavy chain germline transcript which was to investigate the suppression of IgE production in human B cells (IgE class switch suppression). This is a method utilizing the fact that, when human B cells are stimulated by IL-4 to induce the production of IgE, a transcription is started from the upstream intron corresponding to an ε region (Cε) in the constant domain gene of the Ig gene whereupon a transcript (CεGT: germline transcript) is expressed and, after that, a class switch of IgE is resulted by a DNA recombination. CεGT is an RNA which is always expressed before the IgE production is induced and the expressed amount of CεGT is proportional to the class switch amount of the IgE gene. Therefore, when the degree of expressed amount of CεGT is detected, it is possible to estimate the IgE class switch amount.
A method for the expression of an IgE heavy chain germline transcript was carried out according to the following procedures. […]
Then, a cDNA library was prepared according to the following procedure. First, concentration of the extracted total RNA was measured by an absorptiometer, a portion of 10 μg was taken in a 0.6 mL tube and water was added thereto to make 11.8 μL. […]

[3] = system: CεGT inducible expression by IL-4 in human peripheral blood lymphocytes; assay: expression of IgE heavy chain germline transcript (CεGT) induced by IL-4 in human peripheral blood lymphocytes; assay type: cell-based; details: strictinin 25 μM added at the same time with IL-4, human peripheral blood lymphocytes, FIG. 4
Experimental: as §1
Human peripheral blood normal cells (monocytes; separated from the blood which was collected from a healthy human volunteer) was used instead of the human B cell line DND 39 of Experimental Example 3 and an antiallergic activity was measured by the same way as in the method for the expression of an IgE heavy chain germline transcript mentioned in Experimental Example 2. […]

O=C(O[C@@H]1Cc2c(O)cc(O)cc2O[C@@H]1c1ccc(O)c(O)c1)c1cc(O)c(O)c(O)c1 [epicatechin gallate]
liberation of histamine from mast cells [1]: suppress

O=C(O[C@@H]1O[C@@H]2COC(=O)c3cc(O)c(O)c(O)c3-c3c(cc(O)c(O)c3O)C(=O)O[C@H]2[C@H](O)[C@H]1O)c1cc(O)c(O)c(O)c1 [strictinin]
IgE class switch by addition of IL-4 (CεGT inducible expression) [2]: strongly suppressed | IgE class switch by addition of IL-4 (CεGT inducible expression) [3]: strongly suppressed

O=C(O[C@@H]1Cc2c(O)cc(O)cc2O[C@@H]1c1cc(O)c(O)c(O)c1)c1cc(O)c(O)c(O)c1 [epigallocatechin gallate]
liberation of histamine from mast cells [1]: suppress
